# Laboratory results taken from patent publication US20260138976A1 (Hoffmann-La Roche Inc., priority 2022, published 2026).
# Tests used:
# MV-3 cells = assay: T-cell - TCB - MV3 killing assay; format: cell-based, human; settings: for Emax: Homo sapiens, MV-3, 120 h, % TCL normalized: MCSP-TCB only = neutral control, 20 μM reference compound A1 = 100%, read-out: MSCP TCB killing MV-3 cells 5 d Emax (%); for EC50: primary human T-cells + MV-3 RFP cells, MCSP-TCB 1.5 pM-5 pM, 120 hours imaging, read-out: MSCP TCB killing MV-3 cells 5 d EC50
# Procedure: All culturing steps are executed at 5% CO2, 37° C. and 95% humidity. MV-3 RFP cells are cultured in MV-3 medium (DMEM+10% FBS, 1× PenStrep and 0.5 μg/mL Puromycin) for at least 3 weeks. Cultured MV-3 cells at 80% confluency are washed once with PBS−− and trypsinized until detached. […] Cells are seeded with 100 μL/well into a 96-well plate (TTP, #92696), and placed for 40 minutes without moving at room temperature in order to achieve evenly distributed attachment of cells. Plates are then incubated until further use.
# On the next day, expanded primary human T-cells are thawed and resuspended in T-cell medium to 4*10^6 cells/mL. For 3 hours, they are cultured in a 6-well plate with 6 mL per well at maximum. After culturing the T-cells, they are filtered through a cell strainer (Miltenyi Biotech, #130-041-407), counted again, and cell concentration is adjusted to 2*10^6 cells/mL.
# MCSP-TCB or PBS are pre-diluted in T-cell medium (concentration depending on T-cell donor), 4 times more concentrated than the end-concentration. 60 μL/well of pre-dilutions are then distributed into a round bottom plate (Costar, #3799) according to plate layout. Compounds are added in a 9 pt dose response with the Tecan D300e Digital Dispenser, as well 4 times more concentrated than the end-concentration. DMSO concentration of all wells is adjusted to 0.8%, resulting in 0.2% as final concentration.
# 60 μL per well of T-cell suspension are added to the prepared round bottom plate and resuspended with a manual multichannel. 100 μL/well of the resuspended T-cell suspension including treatments are then transferred cautiously to the over-night cultured MV-3 cells according to plate layout. 100 μL T-cell medium only is added to the outer MV-3 wells only. Final compound DR is starting at 20 μM with a dilution factor of 3.333. Final TCB concentration is between 1.5 pM to 5 pM and was determined for each T-cell donor individually by running TCB titrations. For each donor, a TCB concentration was chosen which corresponds to 10-20% MV3 baseline cell killing in the absence of compound treatment. Positive control is the reference compound A1 which is added in a DR, as well as additional wells with only 20 μM. 20 μM of reference compound A1 represent the positive stimulator control, TCB only (DMSO wells) the neutral control.
# After transfer of T-cells with treatment pre-dilutions, MV-3 cells are imaged by time-lapse microscopy using IncucyteZOOM™ (Essen BioScience, MI, USA). Imaging is performed every 3 hours for a total of 120 hours (10× objective, phase and red image channels, acquisition time 400 ms, Green/Red 4614 optical module). RFP object count per well is analysed in the IncucyteZOOM™ Software (Version 2019B Rev2) with a mask that was previously created and optimized for MV-3 cells. Raw data is exported as object count/well and values are normalized as % TCL compared to wells with MV-3 only, representing 100% growth and therefore 0% TCL.
# Calculated % TCL values are analysed in Genedata Screener using Roche Normalization PCT_POS_CTRL with MCSP-TCB only set as Neutral Control and 20 μM of the reference compound A1 set as Stimulator Control/100%.
# Induced TCL by compounds without TCB treatment or toxicity (observed in the PBS condition) were be flagged.
# DGK ζ kinase = target: T1, DGK ζ kinase (Homo sapiens, UniProt Q13574); assay: DGKzeta kinase ADP Glo assay run by Reaction Biology Corp.; format: biochemical; settings: 2 nM kinase, 50 µM ATP, 500 μM DLG, 10-dose duplicate
# T1 construct: purchased Reaction Biology Corp. (contract assay service)
# Procedure: DGK α and ζ kinases use ATP to phosphorylate the substrate 1,2-dilauroyl-sn-glycerol (DLG). ATP is converted to ADP as a result of this enzymatic reaction.
# After the kinase reaction, an ATP-depletion reagent is added to terminate the kinase reaction and deplete any remaining ATP, leaving only ADP. Second, a detection reagent is added to simultaneously convert ADP to ATP and allow the newly synthesized ATP to be converted to light using a coupled luciferase/luciferin reaction.
# DGK α and ζ kinase ADP Glo assays were ran by Reaction Biology Corp., 1 Great Valley Parkway, Suite 2, Malvern, 19355, PA, USA. Information provided by the service provider are the following: DGK α and ζ kinases were used at 2 nM final concentration. Reactions were carried out at 50 µM ATP. 500 μM of the substrate DLG (Dilauroyl-sn-glycerol) was used.
# T1 sequence (Q13574 whole entry): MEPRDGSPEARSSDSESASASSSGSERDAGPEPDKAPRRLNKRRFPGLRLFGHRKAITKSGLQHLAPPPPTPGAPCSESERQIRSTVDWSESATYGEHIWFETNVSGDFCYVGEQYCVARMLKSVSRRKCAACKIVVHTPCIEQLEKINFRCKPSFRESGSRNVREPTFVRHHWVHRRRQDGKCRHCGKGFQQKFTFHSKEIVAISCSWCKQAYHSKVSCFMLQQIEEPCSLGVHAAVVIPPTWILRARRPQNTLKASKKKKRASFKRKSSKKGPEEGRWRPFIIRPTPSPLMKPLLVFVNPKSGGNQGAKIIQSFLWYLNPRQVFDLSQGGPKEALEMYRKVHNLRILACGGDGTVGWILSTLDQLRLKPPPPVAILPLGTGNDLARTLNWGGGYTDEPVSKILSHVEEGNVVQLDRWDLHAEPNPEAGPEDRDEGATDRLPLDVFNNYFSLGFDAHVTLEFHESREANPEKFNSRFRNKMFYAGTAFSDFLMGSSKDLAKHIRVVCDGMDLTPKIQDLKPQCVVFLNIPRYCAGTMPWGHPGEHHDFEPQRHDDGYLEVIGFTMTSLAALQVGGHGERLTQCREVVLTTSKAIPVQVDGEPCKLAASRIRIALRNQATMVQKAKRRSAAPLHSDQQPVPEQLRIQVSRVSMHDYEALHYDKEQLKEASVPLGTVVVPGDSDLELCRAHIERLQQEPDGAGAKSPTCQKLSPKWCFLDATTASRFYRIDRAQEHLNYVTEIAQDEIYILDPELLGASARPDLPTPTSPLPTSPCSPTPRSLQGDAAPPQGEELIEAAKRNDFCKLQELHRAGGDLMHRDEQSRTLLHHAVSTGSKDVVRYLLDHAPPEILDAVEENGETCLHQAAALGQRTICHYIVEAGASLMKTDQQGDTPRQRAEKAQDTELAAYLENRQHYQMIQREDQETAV
IC50 (DGK ζ kinase),SMILES,Emax (MV-3 cells),EC50 (MV-3 cells)
,"N[C@H]1CS(=O)(=O)c2cc(F)c(-c3noc(C4(CO)CCCO4)n3)cc2N(Cc2ccc(-c3noc(C(F)(F)F)n3)cc2)C1=O (stereo partly drawn) [Example 18, (3R)-3-amino-8-fluoro-7-[5-[2-(hydroxymethyl)tetrahydrofuran-2-yl]-1,2,4-oxadiazol-3-yl]-1,1-dioxo-5-[[4-[5-(trifluoromethyl)-1,2,4-oxadiazol-3-yl]phenyl]methyl]-2,3-dihydro-1λ^6,5-benzothiazepin-4-one]",67%,29 nM
510 nM,"CC(C)(C)c1nnc(-c2ccc3c(c2)N(Cc2ccc(-c4nnc(C(F)(F)F)o4)cc2)C(=O)[C@@H](N)CS3(=O)=O)o1 [Example 24, (3R)-3-amino-7-(5-tert-butyl-1,3,4-oxadiazol-2-yl)-1,1-dioxo-5-[[4-[5-(trifluoromethyl)-1,3,4-oxadiazol-2-yl]phenyl]methyl]-2,3-dihydro-1λ^6,5-benzothiazepin-4-one]",108%,273 nM
128 nM,"CC(N)(c1nnc(-c2ccc3c(c2)N(Cc2ccc(-c4noc(C(F)(F)F)n4)cc2)C(=O)[C@@H](N)CS3(=O)=O)o1)C(F)(F)F (stereo partly drawn) [Example 32, (3R)-3-amino-7-[5-(1-amino-2,2,2-trifluoro-1-methyl-ethyl)-1,3,4-oxadiazol-2-yl]-1,1-dioxo-5-[[4-[5-(trifluoromethyl)-1,2,4-oxadiazol-3-yl]phenyl]methyl]-2,3-dihydro-1λ^6,5-benzothiazepin-4-one]",100%,120 nM
,"CC(C#N)c1nnc(-c2ccc3c(c2)N(Cc2ccc(-c4noc(C(F)(F)F)n4)cc2)C(=O)[C@@H](N)CS3(=O)=O)o1 (stereo partly drawn) [Example 35, 2-[5-[(3R)-3-amino-1,1,4-trioxo-5-[[4-[5-(trifluoromethyl)-1,2,4-oxadiazol-3-yl]phenyl]methyl]-2,3-dihydro-1λ^6,5-benzothiazepin-7-yl]-1,3,4-oxadiazol-2-yl]propanenitrile]",91%,373 nM
50.7 nM,"N[C@H]1CS(=O)(=O)c2ccc(-c3nnc(C4(C5CC5)CCCO4)o3)cc2N(Cc2ccc(-c3noc(C(F)(F)F)n3)cc2)C1=O (stereo partly drawn) [Example 36, (3R)-3-amino-7-[5-(2-cyclopropyl-tetrahydrofuran-2-yl)-1,3,4-oxadiazol-2-yl]-1,1-dioxo-5-[[4-[5-(trifluoromethyl)-1,2,4-oxadiazol-3-yl]phenyl]methyl]-2,3-dihydro-1λ^6,5-benzothiazepin-4-one]",,
,"COC(F)(c1nnc(-c2ccc3c(c2)N(Cc2ccc(-c4noc(C(F)(F)F)n4)cc2)C(=O)[C@@H](N)CS3(=O)=O)o1)C(F)(F)F (stereo partly drawn) [Example 37, (3R)-3-amino-1,1-dioxo-7-[5-(1,2,2,2-tetrafluoro-1-methoxy-ethyl)-1,3,4-oxadiazol-2-yl]-5-[[4-[5-(trifluoromethyl)-1,2,4-oxadiazol-3-yl]phenyl]methyl]-2,3-dihydro-1λ^6,5-benzothiazepin-4-one]",133%,58 nM
56.4 nM,"N[C@H]1CS(=O)(=O)c2ccc(-c3nnc(C4(N)CCCCC4)o3)cc2N(Cc2ccc(-c3noc(C(F)(F)F)n3)cc2)C1=O [Example 39, (3R)-3-amino-7-[5-(1-aminocyclohexyl)-1,3,4-oxadiazol-2-yl]-1,1-dioxo-5-[[4-[5-(trifluoromethyl)-1,2,4-oxadiazol-3-yl]phenyl]methyl]-2,3-dihydro-1λ^6,5-benzothiazepin-4-one]",72%,190 nM
,"N[C@H]1CS(=O)(=O)c2ccc(-c3nnc(C4(CO)CCCO4)o3)cc2N(Cc2ccc(-c3noc(C(F)(F)F)n3)cc2)C1=O (stereo partly drawn) [Example 54, (3R)-3-amino-7-[5-[2-(hydroxymethyl)tetrahydrofuran-2-yl]-1,3,4-oxadiazol-2-yl]-1,1-dioxo-5-[[4-[5-(trifluoromethyl)-1,2,4-oxadiazol-3-yl]phenyl]methyl]-2,3-dihydro-1λ^6,5-benzothiazepin-4-one]",86%,246 nM
,N[C@H]1CS(=O)(=O)c2ccc(-c3nnc(N4CCOC(F)(F)C4)o3)cc2N(Cc2ccc(-c3nnc(C(F)(F)F)o3)cc2)C1=O [Example 80],86%,257 nM
4.1 nM,"CC(C)(C#N)c1nnc(-c2cc3c(cc2F)S(=O)(=O)C[C@H](N)C(=O)N3Cc2ccc(-c3ccc(C(F)(F)F)cn3)cc2)o1 [Example 88, 2-[5-[(3R)-3-amino-8-fluoro-1,1,4-trioxo-5-[[4-[5-(trifluoromethyl)-2-pyridyl]phenyl]methyl]-2,3-dihydro-1λ^6,5-benzothiazepin-7-yl]-1,3,4-oxadiazol-2-yl]-2-methyl-propanenitrile]",,
,Cn1nc(C(F)(F)F)cc1-c1ccc(CN2C(=O)[C@@H](N)CS(=O)(=O)c3ccc(-c4nnc(C(C)(C)C)o4)cc32)cc1 [Example 92],99%,120 nM
107 nM,"CC(O)(c1nnc(-c2ccc3c(c2)N(Cc2ccc(-c4noc(C(F)(F)F)n4)cc2)C(=O)[C@@H](N)CS3(=O)=O)o1)C(F)(F)F (stereo partly drawn) [Example 96, (3R)-3-amino-1,1-dioxo-7-[5-(2,2,2-trifluoro-1-hydroxy-1-methyl-ethyl)-1,3,4-oxadiazol-2-yl]-5-[[4-[5-(trifluoromethyl)-1,2,4-oxadiazol-3-yl]phenyl]methyl]-2,3-dihydro-1λ^6,5-benzothiazepin-4-one]",,
,"N[C@H]1CS(=O)(=O)c2ccc(-c3nnc(N4CCC(F)(F)CC4)o3)cc2N(Cc2ccc(-n3ccc(C(F)(F)F)n3)cc2)C1=O [Example 162, (3R)-3-amino-7-[5-(4,4-difluoro-1-piperidyl)-1,3,4-oxadiazol-2-yl]-1,1-dioxo-5-[[4-[3-(trifluoromethyl)pyrazol-1-yl]phenyl]methyl]-2,3-dihydro-1λ^6,5-benzothiazepin-4-one]",100%,168 nM
